For assay [1], the target named is T1, Probable nicotinate-nucleotide adenylyltransferase (Bacillus anthracis (strain CDC 684 / NRRL 3495), UniProt C3L5T6).
T1 sequence (C3L5T6 whole entry): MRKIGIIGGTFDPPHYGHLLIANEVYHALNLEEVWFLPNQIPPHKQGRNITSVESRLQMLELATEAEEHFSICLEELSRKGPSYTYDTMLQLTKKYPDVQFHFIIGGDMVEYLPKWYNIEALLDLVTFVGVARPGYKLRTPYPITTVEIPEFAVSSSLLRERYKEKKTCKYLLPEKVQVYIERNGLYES
Description: NaMNAT HPLC Enzyme Assay. The conditions noted are these: pH 7.5; 0 °C. From the text:
Inhibitory concentration of the compound measured against B. anthracis Nicotinic acid mononucleotide adenylyltransferase (NaMNAT)using HPLC Enzyme Assay

For assay [2], the target named is T2, NH(3)-dependent NAD(+) synthetase (Bacillus anthracis, UniProt Q81RP3).
T2 sequence (Q81RP3 whole entry): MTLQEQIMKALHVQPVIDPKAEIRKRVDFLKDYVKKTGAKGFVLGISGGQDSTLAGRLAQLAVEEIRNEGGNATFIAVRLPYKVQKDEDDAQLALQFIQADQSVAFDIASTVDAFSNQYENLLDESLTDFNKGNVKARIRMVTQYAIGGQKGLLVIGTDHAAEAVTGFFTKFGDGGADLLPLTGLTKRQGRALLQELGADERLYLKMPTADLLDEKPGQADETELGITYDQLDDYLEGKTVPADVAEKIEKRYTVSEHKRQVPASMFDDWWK
Description: NADs HPLC Enzyme Assay. The conditions noted are these: pH 8.5; 4 °C. An excerpt:
Inhibitory concentration of the compound measured against B. anthracis Nicotinamide adenine dinucleotide synthetase (NADs) using HPLC Enzyme Assay

pIC50: −log10 of the molar value.

By pIC50 is commonly meant the negative decadic logarithm of the IC50, by convention in mol/L. A low value points to a large IC50. In the case of `O=C(Nc1ccc([N+](=O)[O-])cc1)Nc1ccc(S(=O)(=O)Nc2ccc(Cl)c(Cl)c2)cc1`, the negative logarithm of the IC50 (pIC50) in assay [1] is 5.70; in assay [2], 5.19.
Take `O=C(Nc1ccc(NS(=O)(=O)c2ccc(C(F)(F)F)cc2)cc1)Nc1cccc([N+](=O)[O-])c1` [1-(3-nitrophenyl)-3-[4-[[4-(trifluoromethyl)phenyl]sulfonylamino]phenyl]urea]: in assay [2], the pIC50 is 3.84.
Take `O=C(Nc1ccc(NS(=O)(=O)c2ccc(Cl)c(Cl)c2)cc1)Nc1ccccc1[N+](=O)[O-]` [1-[4-[(3,4-dichlorophenyl)sulfonylamino]phenyl]-3-(2-nitrophenyl)urea]: the pIC50 in assay [1] is less than 3.22; in assay [2], 3.35.
Consider `O=C(Nc1ccc(NS(=O)(=O)c2ccc(Cl)c(Cl)c2)cc1)Nc1cccc([N+](=O)[O-])c1` [1-[4-[(3,4-dichlorophenyl)sulfonylamino]phenyl]-3-(3-nitrophenyl)urea], for which the negative-log IC50 (pIC50) in assay [1] was 3.42; in assay [2], 4.02.
In the case of `O=C(Nc1ccc(NS(=O)(=O)c2ccc(Cl)c(Cl)c2)cc1)Nc1ccc([N+](=O)[O-])cc1` [1-[4-[(3,4-dichlorophenyl)sulfonylamino]phenyl]-3-(4-nitrophenyl)urea], the pIC50 in assay [1] was 5.14; in assay [2], 4.49.
Regarding `Nc1ccc(S(=O)(=O)Nc2ccc(NC(=O)Nc3ccccc3[N+](=O)[O-])cc2)cc1` [1-[4-[(4-aminophenyl)sulfonylamino]phenyl]-3-(2-nitrophenyl)urea], the figures for the negative logarithm of the IC50 (pIC50) in assay [1] and in assay [2] were less than 3.82 and 4.77, respectively.
As to `O=C(Nc1ccc(NS(=O)(=O)c2ccc(F)cc2)cc1)Nc1ccc([N+](=O)[O-])cc1` [1-[4-[(4-fluorophenyl)sulfonylamino]phenyl]-3-(4-nitrophenyl)urea], the pIC50 in assay [1] is 3.43.

The values above are taken from BindingDB's records for doi:10.1021/cc9000357 (University of Alabama At Birmingham, 2009).
